Counter-ions that a name gives are not always drawn.
Molecular target: human LOXL2 (Homo sapiens (Human), UniProt Q9Y4K0)
Assay: Human LOXL2 amine oxidase activity assay (Amplex Red)
Assay type: biochemical
Settings: concentrated conditioned media from CHO cells stably expressing human LOXL2; 2 h at 37° C. with compound; DAP substrate
Description: Example B-1: Human LOXL2 Amine Oxidase Activity Assay
LOXL2 amine oxidase activity is evaluated by measuring Amplex Red fluorescence using 10-20× concentrated conditioned media from CHO cells stably expressing human LOXL2. To assay for amine oxidase activity, 10 μL of the concentrated conditioned media is incubated with 2 μL of test compound in DMSO and 73 μL Assay Buffer (50 mM Borate Buffer, pH8) for 2 h at 37° C. After the 2 h incubation, 5 ul of 10 mM 1,5-Diaminopentane (DAP) diluted in Assay Buffer and 10 μl of Amplex Red Mix (8.5 μl Assay Buffer+0.5 μl of 10 mM Amplex Red+1 μl of 500 U/ml Horseradish Peroxidase) are added and the plate mixed and immediately placed on the FlexStaion for fluorescence measurements. Fluorescence is read in kinetic mode every 2 min for 1 hour at excitation=544 and emission=590. The amine oxidase activity is calculated from the slope of the linear portion of the curve.

Sequence of human LOXL2 (Q9Y4K0 26-774): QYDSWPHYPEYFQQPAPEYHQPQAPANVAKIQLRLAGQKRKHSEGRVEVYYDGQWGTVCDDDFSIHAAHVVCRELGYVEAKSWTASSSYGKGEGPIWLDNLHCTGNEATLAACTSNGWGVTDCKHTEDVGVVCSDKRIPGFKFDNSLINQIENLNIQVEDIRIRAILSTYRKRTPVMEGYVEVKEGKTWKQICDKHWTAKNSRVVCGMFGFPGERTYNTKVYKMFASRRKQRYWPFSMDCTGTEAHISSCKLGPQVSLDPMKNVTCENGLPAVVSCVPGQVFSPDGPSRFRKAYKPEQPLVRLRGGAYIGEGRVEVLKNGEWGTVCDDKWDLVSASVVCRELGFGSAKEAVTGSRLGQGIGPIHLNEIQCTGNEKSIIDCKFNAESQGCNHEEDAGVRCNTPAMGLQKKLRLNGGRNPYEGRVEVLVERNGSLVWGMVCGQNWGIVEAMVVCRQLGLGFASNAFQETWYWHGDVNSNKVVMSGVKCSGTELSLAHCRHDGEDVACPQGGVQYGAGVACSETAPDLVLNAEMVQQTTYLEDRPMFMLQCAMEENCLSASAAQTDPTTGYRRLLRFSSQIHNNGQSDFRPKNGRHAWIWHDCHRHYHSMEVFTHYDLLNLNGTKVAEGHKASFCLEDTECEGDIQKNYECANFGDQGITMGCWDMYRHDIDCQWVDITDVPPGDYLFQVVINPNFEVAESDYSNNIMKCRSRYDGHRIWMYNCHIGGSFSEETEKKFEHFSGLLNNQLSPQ

Row | Structure (SMILES) | IC50
1 | CS(=O)(=O)CCNC(=O)c1cccc(CNc2cc(CN)cc(C(F)(F)F)n2)c1 [Compound 1-106, 3-(((4-(Aminomethyl)-6-(trifluoromethyl)pyridin-2-yl)amino)methyl)-N-(2-(methylsulfonyl)ethyl)benzamide hydrochloride] | < 300 nM
2 | NCc1cc(Oc2cccc3[nH]ccc23)nc(C(F)(F)F)c1 [Compound 1-58, (2-((1H-Indol-4-yl)oxy)-6-(trifluoromethyl)pyridin-4-yl)methanamine] | < 300 nM
3 | NCc1cc(Oc2cccc(-c3cn[nH]c3)c2)nc(C(F)(F)F)c1 [Compound 1-6, (2-(3-(1H-Pyrazol-4-yl)phenoxy)-6-(trifluoromethyl)pyridin-4-yl)methanamine trifluoroacetate] | < 300 nM
4 | NCc1cc(Oc2cccc(C(=O)NC3COC3)c2)nc(C(F)(F)F)c1 [Compound 1-200, 3-((4-(Aminomethyl)-6-(trifluoromethyl)pyridin-2-yl)oxy)-N-(oxetan-3-yl)benzamide trifluoroacetate] | < 300 nM
5 | NCc1cc(OC2CCN(C(=O)Nc3ccccc3)CC2)nc(C(F)(F)F)c1 [Compound 1-41, 4-((4-(Aminomethyl)-6-(trifluoromethyl)pyridin-2-yl)oxy)-N-phenylpiperidine-1-carboxamide trifluoroacetate] | 300 to 1000 nM
6 | NCc1cc(Oc2cccc(C(=O)N3CC[C@H](O)C3)c2)nc(C(F)(F)F)c1 [Compound 1-17, (S)-(3-((4-(Aminomethyl)-6-(trifluoromethyl)pyridin-2-yl)oxy)phenyl)(3-hydroxypyrrolidin-1-yl)methanone hydrochloride] | < 300 nM
7 | NCc1cc(Oc2cccc(C(=O)NCc3cc4ccccc4s3)c2)nc(C(F)(F)F)c1 [Compound 1-10, 3-((4-(Aminomethyl)-6-(trifluoromethyl)pyridin-2-yl)oxy)-N-(benzo[b]thiophen-2-ylmethyl)benzamide hydrochloride] | < 300 nM
8 | NCc1cc(Oc2cncc(C(=O)N3CC[C@@H](N)C3)c2)nc(C(F)(F)F)c1 [Compound 1-54, (R)-(5-((4-(Aminomethyl)-6-(trifluoromethyl)pyridin-2-yl)oxy)pyridin-3-yl)(3-aminopyrrolidin-1-yl)methanone dihydrochloride] | < 300 nM
9 | NCc1cc(O[C@H]2CCCN(C(=O)Nc3ccccc3)C2)nc(C(F)(F)F)c1 [Compound 1-44, (S)-3-((4-(Aminomethyl)-6-(trifluoromethyl)pyridin-2-yl)oxy)-N-phenylpiperidine-1-carboxamide trifluoroacetate] | < 300 nM
10 | NCc1cc(Oc2cccc(C(=O)NCC3CCC(=O)N3)c2)nc(C(F)(F)F)c1 (racemic) [Compound 1-29, Racemic-3-((4-(aminomethyl)-6-(trifluoromethyl)pyridin-2-yl)oxy)-N-((5-oxopyrrolidin-2-yl)methyl)benzamide hydrochloride] | < 300 nM
11 | CN(C(=O)Cn1ccc2c(Oc3cc(CN)cc(C(F)(F)F)n3)cccc21)c1ccccc1 [Compound 1-38, 2-(4-((4-(Aminomethyl)-6-(trifluoromethyl)pyridin-2-yl)oxy)-1H-indol-1-yl)-N-methyl-N-phenylacetamide hydrochloride] | < 300 nM
12 | NCc1cc(Oc2cccc(-n3ccccc3=O)c2)nc(C(F)(F)F)c1 [Compound 1-169, 1-(3-((4-(Aminomethyl)-6-(trifluoromethyl)pyridin-2-yl)oxy)phenyl)pyridin-2(1H)-one] | < 300 nM
13 | NCc1cc(Oc2cccc(Oc3ccccc3)c2)nc(C(F)(F)F)c1 [Compound 1-3, (2-(3-Phenoxyphenoxy)-6-(trifluoromethyl)pyridin-4-yl)methanamine trifluoroacetate] | < 300 nM
14 | NCc1cc(Oc2cccc(C(=O)NCCS(N)(=O)=O)c2)nc(C(F)(F)F)c1 [Compound 1-34, 3-((4-(Aminomethyl)-6-(trifluoromethyl)pyridin-2-yl)oxy)-N-(2-sulfamoylethyl)benzamide hydrochloride] | < 300 nM
15 | NCc1cc(Oc2cccc(C(=O)NCc3nn[nH]n3)c2)nc(C(F)(F)F)c1 [Compound 1-13, N-((2H-Tetrazol-5-yl)methyl)-3-((4-(aminomethyl)-6-(trifluoromethyl)pyridin-2-yl)oxy)benzamide hydrochloride] | < 300 nM

Next, values leading:

Row | IC50 | Structure (SMILES)
16 | < 300 nM | NCc1cc(Oc2cccc(C(=O)N[C@H]3COCC[C@@H]3O)c2)nc(C(F)(F)F)c1 [Compound 1-208, 3-((4-(Aminomethyl)-6-(trifluoromethyl)pyridin-2-yl)oxy)-N-((3S,4S)-4-hydroxytetrahydro-2H-pyran-3-yl)benzamide hydrochloride]
17 | 300 to 1000 nM | NCc1cc(Oc2cccc(C(=O)O)c2)nc(C(F)(F)F)c1 [Compound 1-224, 3-((4-(Aminomethyl)-6-(trifluoromethyl)pyridin-2-yl)oxy)benzoic acid hydrochloride]
18 | 300 to 1000 nM | NCc1cc(NCc2cccc(C(=O)N3CC[C@H](O)C3)c2)nc(C(F)(F)F)c1 [Compound 1-237, (S)-(3-(((4-(Aminomethyl)-6-(trifluoromethyl)pyridin-2-yl)amino)methyl)phenyl)(3-hydroxypyrrolidin-1-yl)methanone hydrochloride]
19 | 300 to 1000 nM | Cc1cc(=O)n(Cc2cc(CN)cc(C(F)(F)F)n2)c(=O)n1Cc1ccncn1 [Compound 1-243, 3-((4-(Aminomethyl)-6-(trifluoromethyl)pyridin-2-yl)methyl)-6-methyl-1-(pyrimidin-4-ylmethyl)pyrimidine-2,4(1H,3H)-dione hydrochloride]
20 | < 300 nM | NCc1cc(Oc2cccc(C(=O)NCCCCc3cn(-c4ccccc4)nn3)c2)nc(C(F)(F)F)c1 [Compound 1-217, 3-((4-(Aminomethyl)-6-(trifluoromethyl)pyridin-2-yl)oxy)-N-(4-(1-phenyl-1H-1,2,3-triazol-4-yl)butyl)benzamide hydrochloride]
21 | < 300 nM | NCc1cc(Oc2cccc(C(=O)N3CCC(CO)CC3)c2)nc(C(F)(F)F)c1 [Compound 1-204, (3-((4-(Aminomethyl)-6-(trifluoromethyl)pyridin-2-yl)oxy)phenyl)(4-(hydroxymethyl)piperidin-1-yl)methanone hydrochloride]
22 | 300 to 1000 nM | NCc1cc(Oc2cc(C(=O)N3C[C@@H](O)[C@H](F)C3)ccc2O)nc(C(F)(F)F)c1 (racemic) [Compound 1-229, Racemic-trans-(3-((4-(aminomethyl)-6-(trifluoromethyl)pyridin-2-yl)oxy)-4-hydroxyphenyl)(3-fluoro-4-hydroxypyrrolidin-1-yl)methanone hydrochloride]
23 | < 300 nM | NCc1cc(NC(=O)c2cccc(C(=O)O)c2)nc(C(F)(F)F)c1 [Compound 1-239, 3-((4-(Aminomethyl)-6-(trifluoromethyl)pyridin-2-yl)carbamoyl)benzoic acid trifluoroacetate]
24 | < 300 nM | NCc1cc(Oc2cccc(C(=O)Nc3ncco3)c2)nc(C(F)(F)F)c1 [Compound 1-227, 3-((4-(Aminomethyl)-6-(trifluoromethyl)pyridin-2-yl)oxy)-N-(oxazol-2-yl)benzamide hydrochloride]
25 | < 300 nM | NCc1cc(Oc2cccc(C(=O)Nc3nnco3)c2)nc(C(F)(F)F)c1 [Compound 1-228, 3-((4-(Aminomethyl)-6-(trifluoromethyl)pyridin-2-yl)oxy)-N-(1,3,4-oxadiazol-2-yl)benzamide hydrochloride]

From US11072585B2 (PharmAkea, Inc., priority 2015, dated 2021)
